In patent publication US7175853B1, “Therapeutic system which can be moisture-activated” (LTS Lohmann Therapie-Systeme AG, priority 1998, dated 2007):

Assay: Dehydration behaviour of activators by Difference Scanning Calorimetry (DSC)
Type: physicochemical
Details: FIG. 14a-c
Text: The dehydration behaviour of these substances was examined in three example substances by Difference Scanning Calorimetry (DSC). This thermal analysis provides information on the stages of dehydration taking place under energy absorption, and on the respective typical temperature.

dehydration temperature: 86.5 °C
Compound: O.O.O.O.O.O=[Si]([O-])[O-].[Na+].[Na+] [Na2SiO3.5H2O, sodium metasilicate pentahydrate]
